Test results as given in US20250099483A1, “THERAPEUTIC COMPOUNDS” (priority 2021, published 2025).

Assays:
Format in all cases: in vivo, human (healthy male volunteers)
[1] = Phase 1 trial Part I: plasma pharmacokinetics after single ascending oral doses
Procedure: (§1) A Phase 1, randomized, double-blind, placebo-controlled clinical trial was performed to assess the safety and pharmacokinetics (PK) of Compound 1 after single, escalating, and repeated oral doses in healthy male volunteers.
(§2) The primary objective was to assess the safety of escalating single oral doses of Compound 1 compared with placebo in healthy male volunteers. The secondary objective was to measure plasma pharmacokinetic (PK) parameters of Compound 1.
(§3) 4-[(7-methoxy-2,3-dihydro-1,4-benzothiazepin-4(5H)yl)methyl]benzoic acid hemi-fumarate (Compound 1) was administered in a gastro-resistant tablet according to EXAMPLE 5. The formulation contained 20 mg, 40 mg, or 200 mg Compound 1 (based on the mass of 4-[(7-methoxy-2,3-dihydro-1,4-benzothiazepin-4(5H)yl)methyl]benzoic acid). Placebo tablet according to Example 2 was used as comparator.
In part I, participants from groups A, B, C, D, and E received single doses of 40 mg, 80 mg, 160 mg, 240 mg, or 400 mg Compound 1, respectively, or corresponding placebo. Forty subjects completed part I: 30 active (6 per cohort) and 10 placebo.
In Part I, blood samples were collected from each participant as follows: at pre-dose, then 0.25, 0.5, 1, 1.5, 2, 3, 4, 5, 6, 8, 10, 12, 16, 24, 36, 48, 60, 72, and 96 hours after dosing.
(§4) The area under the plasma concentration-time curve was calculated using a combined linear and logarithmic trapezoidal rule. The interpolation was linear in the constant and ascending parts of the plasma concentration-time profiles. The interpolation was logarithmic in the descending parts.
For Part I, to assess the dose effect on the PK of Compound 1, the mean AUClast, and Cmax for each dose were calculated and were plotted by dose.
(§5) Plasma and muscle samples were analyzed by LC-MS/MS method.

[2] = Phase 1 trial Part II: plasma pharmacokinetics after repeated once-daily oral doses over 14 days; conditions: for Steady-state attained at day: once daily
Procedure: as §1
as §2, with “repeated” for “single”, “1 over 14 days” for “1”, “1 and to assess the concentration of Compound 1 in quadriceps muscle.” for “1.”
as §3
In Part II, participants from groups I, J, K, and L received repeated doses of 20 mg, 60 mg, 120 mg, or 240 mg Compound 1, respectively, or corresponding placebo once daily over a period of 14 days. Forty-one subjects completed Part II: 7/7/8/7 for cohorts I, J, K, L, and twelve placebo.
In Part II, blood samples were collected from each participant as follows: Day 1:12 samples from the pre-morning dose up to 16 h (pre-dose, 0.25, 0.5, 1, 1.5, 2, 3, 4, 6, 8, 12, and 16 h), Days 2-13:12 samples at pre-doses (i.e., morning dose); Day 14:16 samples from the pre-morning dose up to 96 (D14 pre-dose, 0.25, 0.5, 1, 1.5, 2, 3, 4, 6, 8, 12, and 16 h and D15-18:1 sample before theoretical morning dosing.
as §4
For Part II, the same approach was used on AUC, (Day 14) respectively AUC24 (Day 1), and Cmax.
as §5

[3] = Phase 1 trial Part II: concentration in quadriceps muscle biopsy on Day 13; conditions: for Total Cpd I concentration / Unbound Cpd I concentration: quadriceps muscle, Day 13, at least 3 h post dose, median (range); for Kp: geom. mean (geom. % CV)
Procedure: The primary objective was to assess the safety of escalating repeated oral doses of Compound 1 over 14 days compared with placebo in healthy male volunteers. The secondary objective was to measure plasma pharmacokinetic (PK) parameters of Compound 1 and to assess the concentration of Compound 1 in quadriceps muscle. For Study part II (for all groups), Concentrations of Compound 1 were determined in muscle by performing muscle biopsy on quadriceps muscle on day 13, at least 3 hours after morning dose. Plasma and muscle samples were analyzed by LC-MS/MS method. Muscle biopsy was performed to assess the concentration of Compound 1 in quadriceps muscle. The biopsy was performed on Day 13 at 3 hours post dose at least. Table 10 summarizes the ratios of unbound respective total concentration at Day 13 at 3 hours post dose divided by the plasma concentration on Day 14 at 3 hours post dose.

[4] = Phase 1 trial: safety and tolerability of single and repeated oral doses
Procedure: as §1, §2
as §2, with “repeated” for “single”, “1 over 14 days” for “1”, “1 and to assess the concentration of Compound 1 in quadriceps muscle.” for “1.”

dose proportionality of AUClast and Cmax ([1]; Part I, graphical inspections): dose proportionality
inter-individual variability across treatment groups ([1]; Part I, single oral doses): low
tlag ([1]; after single oral administration at 20 to 400 mg, gastro-resistant tablet): less than 2 hours
absorption ([1]; single oral administration, after a lag time consistent with the gastro-resistant tablet): rapid absorption
Steady-state attained at day ([2]; 240 mg cohort): 5
Steady-state attained at day ([2]; 20, 60, and 120 mg cohorts): 4
inter-individual variability (Cmax and AUC24) ([2]; Part II, 20, 60, 120, and 240 mg/d): low
Steady-state attained after days of daily treatment ([2]; Part II, across cohorts 20-240 mg once daily): 3 to 7 days
dose proportionality of AUCτ resp. AUC0-24 and Cmax ([2]; Part II, graphical inspections): dose proportionality
accumulation ratios for Cmax and AUC24 ([2]; after 14-day repeated administrations of 20, 60, 120, and 240 mg/d): 1.4-1.8
Tmax ([2]; male, human, plasma, after 14-days of repeated once daily oral administrations of 20 mg (so in the source), read-out: median Tmax): 3 to 3.5 h
dose proportionality of median unbound and total concentrations in quadriceps muscle ([3]; Part II, 20-240 mg once daily): dose proportional
Kp at 3 h ([3]; male, human, quadriceps muscle / plasma, oral, summary, within the dose range 20-240 mg): 0.04 to 0.08
Total Cpd I concentration ([3]; 20 mg once daily (n=7)): 171 (141-341) ng/g
Unbound Cpd I concentration ([3]; 20 mg once daily (n=7)): 22.0 (17.5-41.5) ng/g
Total Cpd I concentration ([3]; 60 mg once daily (n=7)): 489 (273-693) ng/g
Unbound Cpd I concentration ([3]; 60 mg once daily (n=7)): 80.3 (49.7-124) ng/g
Total Cpd I concentration ([3]; 120 mg once daily (n=8)): 913 (614-1207) ng/g
Unbound Cpd I concentration ([3]; 120 mg once daily (n=8)): 104 (63.2-196) ng/g
Total Cpd I concentration ([3]; 240 mg once daily (n=7)): 1480 (890-1745) ng/g
Unbound Cpd I concentration ([3]; 240 mg once daily (n=7)): 242 (196-452) ng/g
Kpu ([3]; summary, within the dose range 20-240 mg): 0.008-0.01
Kp ([3]; total muscle concentration Day 13, 3 h post dose / plasma concentration Day 14, 3 h post dose, 20 mg once daily): 0.0808 (65.3) (ng/g)/(ng/mL)
Kp ([3]; total muscle concentration Day 13 / plasma concentration Day 14, 3 h post dose, 60 mg once daily): 0.0640 (22.6) (ng/g)/(ng/mL)
Kp ([3]; total muscle concentration Day 13 / plasma concentration Day 14, 3 h post dose, 120 mg once daily): 0.0636 (49.9) (ng/g)/(ng/mL)
Kp ([3]; total muscle concentration Day 13 / plasma concentration Day 14, 3 h post dose, 240 mg once daily): 0.0440 (30.0) (ng/g)/(ng/mL)
Compound: COc1ccc2c(c1)CN(Cc1ccc(C(=O)O)cc1)CCS2.O=C(O)/C=C/C(=O)O [Compound 1, 4-[(7-methoxy-2,3-dihydro-1,4-benzothiazepin-4(5H)yl)methyl]benzoic acid hemifumarate]
linearity of pharmacokinetics with dose ([1]; Part I, single oral doses): No evidence of non-linearity with the dose
linearity of pharmacokinetics with time and dose ([2]; single and repeat dose studies): No evidence of non-linearity with the time and dose
tolerability ([4]; at the doses and dose regimens tested): well tolerated
serious adverse events ([4]; single doses and 14-day repeated doses tested): No serious adverse events were reported
